{"source": "patent US20110182850A1", "about": "“ORGANIC COMPOUNDS AND THEIR USES” (priority 2009, published 2011)", "key": {"[1]": {"molecular_target": "T1, HCV NS3-4A serine protease (full-length NS3-4A protein, genotype 1a, strain HCV-1) (Hepatitis C virus genotype 1a, UniProt P26664)", "T1 construct": "using the full-length NS3-4A protein (genotype 1a, strain HCV-1)", "T1 sequence (P26664 1658-1711)": "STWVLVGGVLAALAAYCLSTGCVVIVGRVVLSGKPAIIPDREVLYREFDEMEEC", "T1 sequence (P26664 1027-1657)": "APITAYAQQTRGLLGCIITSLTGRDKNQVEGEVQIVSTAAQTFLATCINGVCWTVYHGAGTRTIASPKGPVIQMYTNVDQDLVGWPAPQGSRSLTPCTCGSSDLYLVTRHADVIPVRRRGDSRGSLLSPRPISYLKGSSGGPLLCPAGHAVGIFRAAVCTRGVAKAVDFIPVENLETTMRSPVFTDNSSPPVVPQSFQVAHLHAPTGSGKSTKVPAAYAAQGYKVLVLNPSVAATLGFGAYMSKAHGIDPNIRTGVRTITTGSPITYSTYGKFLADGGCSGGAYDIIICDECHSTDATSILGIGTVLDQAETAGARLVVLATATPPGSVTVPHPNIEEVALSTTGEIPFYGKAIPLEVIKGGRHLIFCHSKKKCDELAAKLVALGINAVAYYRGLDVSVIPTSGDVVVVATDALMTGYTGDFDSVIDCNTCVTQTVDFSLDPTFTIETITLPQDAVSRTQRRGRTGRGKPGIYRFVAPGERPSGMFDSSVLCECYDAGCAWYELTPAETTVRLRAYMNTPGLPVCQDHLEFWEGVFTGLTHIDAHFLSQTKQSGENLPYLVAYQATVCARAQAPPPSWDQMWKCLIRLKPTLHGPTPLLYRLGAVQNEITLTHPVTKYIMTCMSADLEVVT", "assay": "HCV NS3-4A protease assay", "format": "biochemical", "conditions": "Protease IC50", "experimental": "The inhibitory activity of certain compounds of Table A against HCV NS3-4A serine protease is determined in a homogenous assay using the full-length NS3-4A protein (genotype 1a, strain HCV-1) and a commercially available internally-quenched fluorogenic peptide substrate as described by Taliani, M., et al. 1996 Anal. Biochem. 240:60-67, which is incorporated by reference in its entirety."}, "[2]": {"assay": "in vivo", "parameters": "species or system Sprague Dawley rats", "conditions": "Sprague Dawley, rat; for Cmax: po, 10 mg/kg", "experimental": "Certain compounds of Table A and Comparative Example 1 (Compound A-7 of copending international patent application serial no. PCT/EP08/063,460) are administered as a solution orally via gavage at 10 mg/kg to Sprague Dawley rats at a dosing volume of 10 ml/kg. Samples are collected via a surgically implanted cannula at selected timepoints deemed necessary to characterize pharmacokinetic parameters. Blood samples are placed on wet ice and spun down to plasma within 5 minutes of timepoint collection. Plasma samples are frozen until bioanalytical analysis.\nCertain compounds of Table A and Comparative Example 1 are administered intravenously into a surgically implanted cannula as a solution at 1 mg/kg to Sprague Dawley rats at a dosing volume of […]. Samples are collected via another surgically implanted cannula at selected timepoints deemed necessary to characterize pharmacokinetic parameters. Blood samples are placed on wet ice and spun down to plasma within 5 minutes of timepoint collection. Plasma samples are frozen until bioanalytical analysis."}, "[3]": {"assay": "Measurement of thermodynamic solubility", "format": "physicochemical", "conditions": "thermodynamic from solid, read-out: solubility in water", "experimental": "Thermodynamic solubility for the compounds of the invention listed in Table C is measured by a published literature procedure, e.g., Liping Zhou, et al., J. Pharm. Sci (2007) 96(11): 3052-3071.\nThe DMSO stocks of test compounds previously dissolved in 25 μL of DMSO (˜10 mM) in mini-prep vial (MPV: Whatman, with PVDF filter and 0.45 μm pore size) chamber were evaporated via a GeneVac HT-4X evaporator for approximately 1 hour, at the guard temperature of 30° C. An aliquot of 250 μL buffer solution (pH 1.0 or 6.8) was added into each MPV chamber containing powders reconstituted from DMSO stock solutions. The MPV filter plungers were pushed down into the chamber until the membrane of the filter plunger slightly touched the surface of the buffer to promote equilibrium between the two compartments and to minimize the adsorption due to non-specific binding of samples during the subsequent 24-hr incubation (at 600 RPM at room temperature). Immediately after the 24-hr incubation, the plungers were further pushed down to the bottom of the chambers. More solution was pushed through the membrane and entered the plunger compartment. The filter/chamber assemblies were then put on a shaker for another 30 minutes at 600 RPM. Afterwards, filtrates were further diluted (1:10) with 50/50 acetonitrile/water solvent followed by a thorough mixing process. Both plates with diluted and undiluted filtrates were analyzed by HPLC and quantified against the four-point standard dilution curve of the same test compound (5 μM, 35 μM, 65 μM and 100 μM, respectively). In the current study, solubility reflects the average of triplicate samples tested at each pH."}, "[4]": {"conditions": "pH 1, simulated gastric fluid, pH of about 1"}, "[5]": {"conditions": "pH 6.8, aqueous buffer, pH of about 6.8"}}, "note": "Where two headings read alike, the source gives them in different places."}
{"smiles": "CCCC1(S(=O)(=O)NC(=O)[C@@]2(NC(=O)[C@@H]3C[C@@]4(CN3C(=O)[C@@H](NC(=O)[C@@H](NC(=O)[C@@H]3CCCN3CC)C3CCCCC3)C(C)(C)C)C(C)(C)C43CCC3)C[C@H]2CC)CC1", "note": "[Compound 75, (5R,8S)-7-[(2S)-2-{[(2S)-2-cyclohexyl-2-({[(2S)-1-ethylpyrrolidin-2-yl]carbonyl}amino)acetyl]amino}-3,3-dimethylbutanoyl]-N-[(1R,2R)-2-ethyl-1-{[(1-propylcyclopropyl)sulfonyl]carbamoyl}cyclopropyl]-10,10-dimethyl-7-azadispiro[3.0.4.1]decane-8-carboxamide]", "values": [{"measurement": "IC50", "setting": "[1]", "value": 7, "unit": "nM"}, {"measurement": "Cmax", "setting": "[2]", "value": 289, "unit": "nM"}, {"measurement": "solubility at 24 h", "setting": "[3]; [4]", "value": "≥ 100", "unit": "µM"}, {"measurement": "solubility at 24 h", "setting": "[3]; [5]", "value": "≥ 30", "unit": "µM"}]}
{"smiles": "CC[C@@H]1C[C@]1(NC(=O)[C@@H]1C[C@@]2(CN1C(=O)[C@@H](NC(=O)[C@@H](NC(=O)[C@@H]1CCCN1CC)C1CCCCC1)C(C)(C)C)C(C)(C)C21CCC1)C(=O)NS(=O)(=O)C1(C)CC1", "note": "[Compound 81, (5R,8S)-7-[(2S)-2-{[(2S)-2-cyclohexyl-2-({[(2S)-1-ethylpyrrolidin-2-yl]carbonyl}amino)acetyl]amino}-3,3-dimethylbutanoyl]-N-[(1R,2R)-2-ethyl-1-{[(1-methylcyclopropyl)sulfonyl]carbamoyl}cyclopropyl]-10,10-dimethyl-7-azadispiro[3.0.4.1]decane-8-carboxamide]", "values": [{"measurement": "IC50", "setting": "[1]", "value": 0.6, "unit": "nM"}, {"measurement": "bioavailability", "setting": "[2]", "value": 22, "unit": "%"}, {"measurement": "Cmax", "setting": "[2]", "value": 692, "unit": "nM"}, {"measurement": "solubility at 24 h", "setting": "[3]; [4]", "value": "≥ 100", "unit": "µM"}, {"measurement": "solubility at 24 h", "setting": "[3]; [5]", "value": "≥ 30", "unit": "µM"}]}
{"smiles": "CC[C@@H]1C[C@]1(NC(=O)[C@@H]1C[C@@]2(CN1C(=O)[C@@H](NC(=O)[C@@H](NC(=O)[C@@H]1CCCCN1CC)C1CCCCC1)C(C)(C)C)C(C)(C)C21CCC1)C(=O)NS(=O)(=O)C1(C)CC1", "note": "[Compound 83, (5R,8S)-7-[(2S)-2-{[(2S)-2-cyclohexyl-2-({[(2S)-1-ethylpiperidin-2-yl]carbonyl}amino)acetyl]amino}-3,3-dimethylbutanoyl]-N-[(1R,2R)-2-ethyl-1-{[(1-methylcyclopropyl)sulfonyl]carbamoyl}cyclopropyl]-10,10-dimethyl-7-azadispiro[3.0.4.1]decane-8-carboxamide]", "values": [{"measurement": "IC50", "setting": "[1]", "value": 2.5, "unit": "nM"}, {"measurement": "bioavailability", "setting": "[2]", "value": 26, "unit": "%"}, {"measurement": "Cmax", "setting": "[2]", "value": 578, "unit": "nM"}, {"measurement": "solubility at 24 h", "setting": "[3]; [4]", "value": "≥ 100", "unit": "µM"}, {"measurement": "solubility at 24 h", "setting": "[3]; [5]", "value": "≥ 30", "unit": "µM"}]}
